Source: US11864555B2, “Soil application of crop protection agents” (PIONEER HI-BRED INTERNATIONAL, INC., priority 2017, dated 2024)

Key:
[1] = type: in vivo, soybean; conditions: delivered via the CRYSTAL GREEN particles
Method: The procedure used for Bead #1 was repeated, using CRYSTAL GREEN® fertilizer and the pesticide used was 50% chlorantraniliprole insecticide treatment. Analysis of the amount of chlorantraniliprole for Bead #14 was determined to be 2.15 μg chlorantraniliprole per milligram of bead. Individual rhizotron growth chambers were used as the test apparatus as described before. Beads #13 and 14, or the control solutions were applied to the center area of the soil plug at about 4 mm depth. All the rhizotron chambers were then transferred to the growth room and fit to black utility boxes with precut 4-inch-depth notches located on the left and right rim of the boxes, allowing the chambers to set at about 90 degree upright position. […]
The rhizotrons were maintained in a growth chamber with controlled temperature and light with a 14-hour day/10-hour night diurnal cycle. […] The amount of water or nutrient used was recorded. Plant growth stages were also recorded and photographed periodically. […]
Plant leaflets were harvested 3 times at 24 days (R1 growth stage), 38 days (R4), and 49 days (R5.5) after planting for quantifying the pesticide concentrations. […] Each CPC was quantified by LC-MSMS method using electro-spray positive ionization mode. […] Remaining soil associated with the dried roots was removed and root weight was measured using an analytical balance.

[2] = cited from earlier work
[3] = Aerobic soil degradation of cyantraniliprole in Tama soil; type: physicochemical
Method: Aerobic soil degradation of cyantraniliprole in the various beads was determined versus a stock aqueous solution by following the changes in cyantraniliprole concentration over time.
Tama soil (clay-loam soil) was collected and stored in a refrigerator prior to use. […] Soil (10.0 to 68.3 grams) was weighted into glass jars or polypropylene vials and the moisture content was adjusted to 32.4% (Field capacity for this soil) by adding deionized water to the containers. The containers were covered with tape and pre-incubated inside a temperature controlled incubator at 25° C. for 4 days. […] The incubator temperature was monitored by a digital thermometer, and soil water loss was monitored by weighing each sample container during the experiment. […]
At sampling intervals of 0, 3, 7, 14, 21, 28, 35, 56, 100 and 120 days, three containers from each treatment were removed from the incubator, and the four cyantraniliprole-containing particles or pellets in each container were collected and transferred to 100 mL polypropylene bottles for extraction. […] After the overnight extraction, the extracts were allowed to settle and the supernatant was filtered through 0.4 μm pore size polypropylene filters and stored in a −20° C. freezer before quantifying cyantraniliprole. […]

[4] = Aerobic soil degradation of cyantraniliprole in loam soil; type: physicochemical; conditions: 90 days, pH 5.7
Method: Loam soil had 29% sand, 50% silt, and 21% clay with 2.9% organic matter and a pH of 5.7. […] Soil (20.0 to 50 g) was weighed into individual glass containers and moisture was adjusted to field moisture capacity at approximately 27% by weight by adding de-ionized water to the containers. Afterward, the containers were covered with breathable tape and pre-incubated inside a temperature-controlled incubator at 25° C. for 6 days. The tape allowed free oxygen exchange between the container headspace and ambient air while minimizing soil water loss due to evaporation. […] The incubator temperature was monitored by a digital thermometer and Hobo data logger, and soil water loss was monitored by weighing each sample container during the experiment. […] Soil moisture content was brought back to field capacity once every 1-2 weeks by adding de-ionized water equivalent to the amount of moisture that was lost, monitored by weighing each container every week.
At sampling intervals of 0, 3, 7, 14, 28, 56 and 90 days, three containers from each treatment were removed from the incubator, and the 5 cyantraniliprole-containing particles were collected and transferred to 100 mL polypropylene bottles for extraction. […] Cyantraniliprole was separated by HPLC and quantified by UV detection at 220 nm using an external calibration curve of an analytical standard.

CNC(=O)c1cc(Cl)cc(C)c1NC(=O)c1cc(Br)nn1-c1ncccc1Cl [Chlorantraniliprole]
concentrations in leaf samples averaged from 24 to 49 days [1]: 0.097 μg/gram fresh leaves

CO/C=C(/C(=O)OC)c1ccccc1COc1cccc(C(F)(F)F)n1 [Picoxystrobin]
water solubility [2]: 3.25 milligrams/liter

CNC(=O)c1cc(C#N)cc(C)c1NC(=O)c1cc(Br)nn1-c1ncccc1Cl [stock solution, cyantraniliprole]
cyantraniliprole degraded by day 100 ([3]; 100 days, pH 5.8): ~76%
half-life of biodegradation by soil microbes ([3]; Tama soil, 25° C., aerobic): approximately 43 days

CNC(=O)c1cc(C#N)cc(C)c1NC(=O)c1cc(Br)nn1-c1ncccc1Cl [Control E, Cyantraniliprole]
cyantraniliprole degraded by day 90 [4]: ~79%
